From the supplement of paper PMC7600603

Assays:
[1] = tested on: DLD1 NRF2-GOF; conditions: 72 h; CellTiter-Glo viability
In short: (§1)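 Isogenic DLD1 colorectal cancer cells, either NRF2 wild-type or CRISPR gain-of-function, were grown in DMEM with 10% FBS. They were exposed in 384-well plates to library compounds at 5 concentrations spanning a 10,000-fold range. After 72 h, viability was read by CellTiter-Glo on a Pherastar FS reader and normalised to vehicle wells and 100-μM positive-control wells. EC50 and drug sensitivity score (a normalised area under the curve) came from four-parameter logistic dose-response fits.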

[2] = tested on: DLD1 NRF2-WT; conditions: 72 h; CellTiter-Glo viability
In short: as §1

[3] = tested on: DLD1 NRF2-GOF; experiment: TC50 cytotoxicity; higher = less toxic; conditions: 72 h; CellTox Green cytotoxicity
In short: (§2)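 In 384-well plates, isogenic DLD1 cells with NRF2 wild-type or CRISPR-edited status, grown in DMEM with 10% FBS, received library compounds at 5 concentrations spanning a 10,000-fold range. At 72 h, CellTox Green signals were read on a Pherastar FS reader and scaled between vehicle wells and 100-μM positive-control wells. Cytotoxicity endpoints, TC50 and a drug sensitivity score based on normalised area under the curve, came from logistic dose-response fits.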

[4] = tested on: DLD1 NRF2-WT; experiment: TC50 cytotoxicity; higher = less toxic; conditions: 72 h; CellTox Green cytotoxicity
In short: as §2

[5] = tested on: DLD1 NRF2-GOF; experiment: drug sensitivity score (DSS) cytotoxicity (DSS score); higher = more toxic; extreme values may be limits of the assay; conditions: 72 h; CellTox Green cytotoxicity
In short: as §2

[6] = tested on: DLD1 NRF2-WT; experiment: as above; conditions: 72 h; CellTox Green cytotoxicity
In short: as §2

[7] = tested on: DLD1 NRF2-GOF; experiment: drug sensitivity score (DSS) viability (DSS score); higher = more sensitive; extreme values may be limits of the assay; conditions: 72 h; CellTiter-Glo viability
In short: as §1

[8] = tested on: DLD1 NRF2-WT; experiment: as above; conditions: 72 h; CellTiter-Glo viability
In short: as §1

Compound	EC50 viability [1] [µM]	EC50 viability [2] [µM]	TC50 cytotoxicity [3] [µM]	TC50 cytotoxicity [4] [µM]	drug sensitivity score [5]	drug sensitivity score [6]	drug sensitivity score [7]	drug sensitivity score [8]
CCOCc1nc2c(N)nc3ccccc3c2n1CC(C)(C)O [Resiquimod]	> 10	> 10	> 10	> 10	0	0	0.6	0.7
Cc1ccc(C(=O)Nc2ccc(Oc3cc4cnn(C)c4cc3-c3cn[nH]c3)c(F)c2)c(=O)n1-c1ccc(F)cc1 [Merestinib]	0.0986	0.207	> 1	> 1	0	0	7.9	4.2
CN1CCN(CCOc2cc(OC3CCOCC3)c3c(Nc4c(Cl)ccc5c4OCO5)ncnc3c2)CC1 [Saracatinib]	> 10	2.48	> 10	> 10	0.1	0.7	0.3	2.4
Nc1ccn([C@@H]2O[C@H](CO)[C@@H](O)[C@@H]2O)c(=O)n1 [Cytarabine]	0.477	0.65	> 10	> 10	0	0	6.5	5
CNc1ncc2cc(-c3cc(NC(=O)NCCC(C)(C)C)c(F)cc3C)c(C)nc2n1	0.718	0.496	> 10	> 10	0	0	6.4	9.9
CC(C)Nc1cc(-c2c[nH]c(C(=O)N[C@H](CO)c3cccc(Cl)c3)c2)c(Cl)cn1 [Ulixertinib]	1.14	1.47	> 10	> 10	0	0	6.3	6.1
COc1cc(Nc2c(C#N)cnc3cc(OCCCN4CCN(C)CC4)c(OC)cc23)c(Cl)cc1Cl [Bosutinib]	1.48	1.22	3.43	3.5	3.1	3.8	9.3	10
COc1cc2ncnc(Nc3ccc(F)c(Cl)c3)c2cc1NC(=O)/C=C/CN1CCCCC1 [Dacomitinib]	0.247	0.0964	> 1	> 1	0	0	2.4	5.9
COc1cc(NS(C)(=O)=O)ccc1Nc1c2ccccc2nc2ccccc12 [Amsacrine]	1.22	2.4	> 10	> 10	0	0.7	6.2	4.4
CCCN(CCC)C(=O)C1=Cc2ccc(-c3ccc(C(=O)N4CCCC4)cc3)cc2N=C(N)C1 [Motolimod]	1.33	0.937	> 10	> 10	0	0	3.6	4.4
COC(=O)N[C@@H](C)CNc1nccc(-c2cn(C(C)C)nc2-c2cc(Cl)cc(NS(C)(=O)=O)c2F)n1 [Encorafenib]	0.387	0.412	> 1	> 1	0	0	1.3	1.1
Nc1nc2[nH]cnc2c(=S)[nH]1 [Thioguanine]	1.29	3.5	> 10	> 10	0	0.2	9.4	4.4
C=C1C[C@@H]2[C@H](CC[C@]3(C)C(=O)CC[C@@H]23)[C@@]2(C)C=CC(=O)C=C12 [Exemestane]	> 10	> 10	> 10	> 10	0	0	0.9	0.1
CN(C)CCOc1ccc(/C(=C(/CCCl)c2ccccc2)c2ccccc2)cc1 [Toremifene]	2.15	4.21	> 10	> 10	0	0	4.8	2.2
COCC[n+]1c2c(n(Cc3cnccn3)c1C)C(=O)c1ccccc1C2=O [Sepantronium bromide]	0.0037	0.0068	0.0275	0.0287	30.9	21.7	41.8	38.7
Nc1nc(Cl)nc2c1ncn2[C@@H]1O[C@H](CO)[C@@H](O)[C@@H]1F [Clofarabine]	0.171	0.166	> 10	> 10	0	0	13.2	11.8
CCS(=O)(=O)N1CCN(c2ccc(Nc3ncc(C(N)=O)c(NC4CC4)n3)cc2)CC1 [Cerdulatinib]	0.0649	0.323	> 10	> 10	0	0	13.8	4.3
Cc1cc(Nc2ncc(Cl)c(Nc3ccccc3S(=O)(=O)C(C)C)n2)c(OC(C)C)cc1C1CCNCC1 [Ceritinib]	0.728	0.546	> 2.5	> 2.5	0	0	4.2	5.2
CC(=O)N(O)CCCCCNC(=O)CCC(=O)N(O)CCCCCNC(=O)CCC(=O)N(O)CCCCCN [Deferoxamine]	2.01	3.25	> 10	> 10	0	0	7	4.8
CCCCOc1nc(N)c2c(n1)N(Cc1cccc(CN3CCCC3)c1)CC(=O)N2 [Vesatolimod]	> 10	> 10	> 10	> 10	0	0	0.1	0
CN1CCN(C2CCC(n3cc(-c4ccc(Oc5ccccc5)cc4)c4c(N)ncnc43)CC2)CC1 (centres undefined)	3.27	1.71	3.09	3.23	5.3	4.5	5.4	8.8
Cc1sc2c(c1C)C(c1ccc(Cl)cc1)=N[C@@H](CC(=O)OC(C)(C)C)c1nnc(C)n1-2 [JQ1]	2.71	0.272	> 10	> 10	0	0	2.6	8.8

Compound	EC50 viability [1] [µM]	EC50 viability [2] [µM]	TC50 cytotoxicity [3] [µM]	TC50 cytotoxicity [4] [µM]	drug sensitivity score [5]	drug sensitivity score [6]	drug sensitivity score [7]	drug sensitivity score [8]
CCn1c(-c2nonc2N)nc2cnc(Oc3cccc(NC(=O)c4ccc(OCCN5CCOCC5)cc4)c3)cc21	2.3	1.99	1.55	> 10	6.1	1.2	6.3	5.4
CC(C)(C)Cn1c(N)nc2ccc(-c3[nH]c(C(C)(C)C)nc3-c3ccc(F)cc3)nc21 [Ralimetinib]	2.83	1.94	> 10	> 10	0	0	2.9	4.3
NC(=O)NO [Hydroxyurea]	157	364	> 1000	> 1000	0	0	5.8	1.7
O=c1[nH]c(=O)n([C@H]2C[C@H](O)[C@@H](CO)O2)cc1C(F)(F)F [Trifluridine]	2.51	> 10	> 10	> 10	0	0	2.2	0
CC(=O)O[C@]1(C(C)=O)CC[C@H]2[C@@H]3C=C(C)C4=CC(=O)CC[C@]4(C)[C@H]3CC[C@@]21C [Megestrol acetate]	> 10	> 10	> 10	> 10	0	0	2.4	0
O=C(NCc1ccncc1)C12CC3CC(C1)CC(c1ccc(Cl)cc1)(C3)C2	4.09	5.14	> 50	> 50	0.3	0	9	8.7
C[C@@H](C(=O)O)c1ccc(-c2ccccc2)c(F)c1 [Tarenflurbil]	> 10	> 10	> 10	> 10	0	0	0	0
COC[C@H](NC(=O)c1cnc(C)s1)C(=O)N[C@@H](COC)C(=O)N[C@@H](Cc1ccccc1)C(=O)[C@@]1(C)CO1 [Oprozomib]	0.0504	0.067	0.116	0.0569	15.9	19.7	20.2	18.8
COC12C(COC(N)=O)C3=C(C(=O)C(C)=C(N)C3=O)N1CC1NC12 (stereo in doubt) [Mitomycin C]	1.7	> 10	> 10	> 10	0	0	4	0
CC1=C(/C=C/C(C)=C/C=C/C(C)=C/C(=O)O)C(C)(C)CCC1 [Tretinoin]	0.0965	0.001	> 10	> 10	0	0	12.1	17.7
CC[C@@H]1CN(C(=O)NCC(F)(F)F)C[C@@H]1c1cnc2cnc3[nH]ccc3n12 [Upadacitinib]	0.0101	> 10	> 10	> 10	0	0	10.7	0
CCOc1ccccc1-n1c(C(C)N2CCN(C(=O)COc3ccc(Cl)cc3)CC2)nc2ccccc2c1=O (centres undefined) [Erastin]	> 10	> 10	> 10	> 10	0	0	0	0
Cc1cn(-c2cc(NC(=O)c3ccc(C)c(Nc4nccc(-c5cnccn5)n4)c3)cc(C(F)(F)F)c2)cn1 [Radotinib]	> 10	> 10	> 10	> 10	0.3	0	0.4	0
CCn1cc(-c2ccnc3[nH]c(-c4cccc(CN(C)C)c4)cc23)c(-c2ccc(NC(=O)N(C)C)cc2)n1	0.0452	0.172	> 1	> 1	1.6	0	4.4	2.8
C[C@@H]1CN(C(=O)c2ccc(NC(=O)c3cc(O[C@H](C)c4c(Cl)ccc(F)c4Cl)c(N)nn3)cc2)C[C@H](C)N1 [Ensartinib]	> 1	> 1	> 1	> 1	0.2	0.3	0.1	0
CC[C@@H]1[C@H](F)C(=O)N[C@@H]1COc1nccc2cc(C(N)=O)c(OC)cc12	> 10	> 10	> 10	> 10	0	0	2.4	0.5
Nc1nc(F)nc2c1ncn2[C@@H]1O[C@H](CO)[C@@H](O)[C@@H]1O [Fludarabine]	> 10	> 10	> 10	> 10	0	0	0	0.1
CO[C@@H](C)Cn1c(=O)n(C)c2cnc3ccc(-c4cncc(C(C)(C)O)c4)cc3c21	0.195	0.171	> 2.5	> 2.5	0	0	9.5	10.5
Cc1cnc(NC(=O)Nc2cc(Br)c(C)cc2OC[C@@H]2CNCCO2)cn1 [Rabusertib]	> 1	> 1	> 1	> 1	0	0	1	0.3
Cc1ccc(NC(=O)c2ccc(CN3CCN(C)CC3)cc2)cc1Nc1nc(-c2cccnc2)cs1 [Masitinib]	0.163	1.8	> 10	> 10	0	0	14.3	6.7
CNC(=O)c1ccccc1Nc1cc(Nc2ccc(N3CCOCC3)cc2OC)ncc1C(F)(F)F [VS-4718]	1.6	1.94	> 10	> 10	0	0	4.7	4.3
